Assays:
[1] = system: MES-SA cells; experiment: Fluorescent protein-based cytotoxicity assay, MES-SA; format: cell-based, human; conditions: Homo sapiens, MES-SA; 120 h; ± SD; n = 3
Excerpt: (§1) The cytotoxic activity of proligands H2L^3–H2L^6 and their copper(II) complexes 3–6 was investigated in the MES-SA (human uterine sarcoma) and in its MDR counterpart (MES-SA/Dx5) cell lines by a fluorescent protein-based assay.[73]
(§2) The human uterine sarcoma cell lines MES-SA and the doxorubicin selected MES-SA-Dx5 were obtained from ATCC (MES-SA: No. CRL-1976, MES-SA/Dx5: No. CRL-1977) and were used for the intracellular ROS generation studies. For cytotoxicity, we used the fluorescent cell lines MES-SA mCherry and MES-SA/Dx5 eGFP, which were created by lentiviral transductions of the respective genes.[73] The phenotype of the resistant cells was maintained by 500 nM doxorubicin treatment a week before use and was verified using cytotoxicity assays. Cells were cultivated at 37 °C, 5% CO2 in Dulbecco’s modified Eagle's Medium (DMEM, Sigma-Aldrich), supplemented with 10% fetal bovine serum, 5 mM glutamine, and 50 unit/mL penicillin and streptomycin (Thermo Fisher).
(§3) MES-SA mCherry and MES-SA/Dx5 eGFP cell suspensions were seeded after trypsinization at 2500 cells/20 μL density on 384-well plates, containing 20 μL of completed medium. The next day, serial dilution of the compounds was prepared and added in an additional 20 μL, with or without 0.4 μM Tariquidar. Liquid handling steps were performed by a Hamilton StarLet robot. […] The mean and standard deviation of the pIC50 values were calculated and converted to IC50 values.

[2] = system: MES-SA/Dx5 cells; experiment: Fluorescent protein-based cytotoxicity assay, MES-SA/Dx5; format: cell-based, human
Excerpt: as §1, §2, §3

[3] = system: MES-SA cells; experiment: Intracellular ROS generation, DCF-DA assay, MES-SA; format: cell-based, human; conditions: 25 μM, 4 h treatment
Method: (§4) ROS accumulation was evaluated in both the MES-SA and MES-SA/Dx5 cell lines by using 2′,7′-dichlorodihydrofluorescein diacetate (H2DCF-DA) as a probe. This compound enters the cells by passive diffusion, and after oxidation, it is converted to the highly fluorescent 2′,7′-dichlorofluorescein (DCF), enabling the estimation of intracellular ROS levels. ROS generation was measured after a 4 h treatment with 25 μM H2L^6 or 6; tert-butylhydroperoxide (TBHP, 25 μM) was used as a positive control.
(§5) Figure 6 Intracellular ROS generation measured by the DCF-DA assay in MES-SA (filled bars) and MES-SA/Dx5 (lattice bars) cells, after a 4 h treatment with the indicated compounds at 25 μM: H2L^6 (gray), complex 6 (yellow), Triapine (green), and TBHP (brown). Values indicate fold change relative to the fluorescence of the cells treated with fluorescent probe alone (orange bars), following normalization to the initial fluorescence at the beginning of the incubation. Paired t test to the medium control was calculated; […]; **P < 0.01. Values were calculated from at least three independent experiments.
(§6) The human uterine sarcoma cell lines MES-SA and the doxorubicin selected MES-SA-Dx5 were obtained from ATCC (MES-SA: No. CRL-1976, MES-SA/Dx5: No. CRL-1977) and were used for the intracellular ROS generation studies. […]

[4] = system: MES-SA/Dx5 cells; experiment: Intracellular ROS generation, DCF-DA assay, MES-SA/Dx5; format: cell-based, human; conditions: 25 μM, 4 h treatment
Method: as §4, §5, §6

[5] = system: MES-SA cells; experiment: dNTP pools in MES-SA cell extracts; format: cell-based, human; conditions: 24 h
Excerpt: RNR reduces NDPs to their corresponding deoxy derivatives (dNDPs), which are further converted into dNTPs.[77] Therefore, we investigated the effect of the most toxic proligand H2L^6 and its copper(II) complex 6 on cellular dNTP levels, using Triapine as a control. […] Triapine also elicits a dATP pool decrease while increasing the pools of the three other dNTP species. Decreasing the dATP pool to zero can give rise to the observed cytotoxic effect upon treatment with Triapine. Complex 6 seems to affect dNTP pools by a more complex mechanism, which is nevertheless consistent with R2 inhibition.[79]
Figure 8 Measurement of dNTP pools in MES-SA cell extracts following a 24 h treatment with proligand H2L^6, complex 6, or Triapine at the indicated concentrations. Three independent experiments were performed; error bars represent standard error; stars indicate significant changes compared to the respective control (Ctrl) at p < 0.05.
After a 24 h incubation with or without drugs, MES-SA cells were washed twice with PBS and trypsinized for 5 min. […] The pellet containing dNTPs was redissolved in 50 μL of RNase-free water and stored at −20 °C. dNTP-containing samples were measured by a nucleotide incorporation-based fluorescent method.[97] We used a long synthetic oligonucleotide (197 nt) as a template, which contains a dNTP-detection site, the sole complementary base to that of the dNTP to be quantified directly adjacent to the annealed primer. […] In addition to the limiting amount of dNTP to be quantified, the polymerization reaction mix contained the other three dNTPs in large excess. The double-stranded DNA product is detected by the EvaGreen Dye. The 2X master mix for the DNA synthesis reaction contained the following: 0.275 μM primer (Merck KGaA, Darmstadt, Germany), 0.25 μM template (IDT, Coralville, Iowa, USA), 50 μM dNTP mix (excluding the dNTP to be measured in the given experiment to limit its source to the sample), and 1.25 μM EvaGreen (Biotium). […] Fluorescence amplitude data were extracted from the Bio-Rad CFX Maestro Software and analyzed using Excel and Origin. […]

[6] = design: method as in PMID 32336116; conditions: copper(II) complexes of the named TSCs, measured under similar conditions ref 67; cited from earlier work
[7] = target: T1, mR2 RNR protein (Mus musculus, UniProt P11157); design: method as in PMID 21955844; conditions: in 3 min ref 76; cited from earlier work
T1 construct: made in house
T1 sequence (P11157 1-390): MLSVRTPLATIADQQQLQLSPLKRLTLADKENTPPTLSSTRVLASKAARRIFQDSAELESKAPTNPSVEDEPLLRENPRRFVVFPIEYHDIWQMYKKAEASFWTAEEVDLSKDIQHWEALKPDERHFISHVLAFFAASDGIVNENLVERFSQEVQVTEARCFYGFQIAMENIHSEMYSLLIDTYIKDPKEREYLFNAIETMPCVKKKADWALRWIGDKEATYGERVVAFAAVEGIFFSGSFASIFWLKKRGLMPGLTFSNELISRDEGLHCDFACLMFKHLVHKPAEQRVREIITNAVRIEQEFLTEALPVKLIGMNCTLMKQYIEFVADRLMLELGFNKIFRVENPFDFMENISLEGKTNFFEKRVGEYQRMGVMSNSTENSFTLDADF

NC(=S)NN=Cc1ncccc1N [Triapine, 3-aminopyridine-2-carboxaldehyde thiosemicarbazone, reference compound]
IC50 [1]: 520 ± 100 nM
IC50 ([2]; Homo sapiens, MES-SA/Dx5, 120 h, ± SD, n = 3): 2800 ± 500 nM
SR, selectivity ratio IC50 (MES-SA)/IC50 (MES-SA/Dx5) ([2]; in the absence of TQ): 0.18
Intracellular ROS generation [3]: failed to induce ROS
Intracellular ROS generation [4]: failed to induce ROS
dATP pool [5]: decrease
pools of the three other dNTP species [5]: increasing
kobs, reduction by GSH [6]: 0.10 min^–1
mR2 Y• reduced [7]: 100%
